From patent US20060167048A1, “N-4-piperidinyl compounds as ccr5 modulators” (priority 2002, published 2006)

What was measured:
[1] = biological target: recombinant human CCR5 receptor (Homo sapiens, UniProt P51681); assay: in vitro radioligand binding assay, inhibition of binding of iodinated RANTES or MIP-1α (scintillation proximity); details: membranes from Chinese hamster ovary cells expressing recombinant human CCR5; 0.1 nM iodinated RANTES or MIP-1α; read-out: IC50 (concentration of compound which displaced 50% of bound iodinated RANTES or MIP-1α)
Sequence of recombinant human CCR5 receptor (P51681 whole entry): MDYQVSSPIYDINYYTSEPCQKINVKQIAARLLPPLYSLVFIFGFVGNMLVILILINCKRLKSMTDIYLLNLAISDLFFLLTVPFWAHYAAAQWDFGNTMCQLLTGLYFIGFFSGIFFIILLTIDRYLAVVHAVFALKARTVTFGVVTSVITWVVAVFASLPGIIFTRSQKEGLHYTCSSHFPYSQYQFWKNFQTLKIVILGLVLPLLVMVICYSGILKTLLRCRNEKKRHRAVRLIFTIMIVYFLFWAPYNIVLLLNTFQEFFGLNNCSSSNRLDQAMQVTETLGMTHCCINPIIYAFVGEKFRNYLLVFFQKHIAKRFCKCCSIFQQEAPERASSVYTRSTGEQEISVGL
Description: The ability of compounds to inhibit the binding of RANTES or MIP-1α was assessed by an in vitro radioligand binding assay. Membranes were prepared from Chinese hamster ovary cells which expressed the recombinant human CCR5 receptor. These membranes were incubated with 0.1 nM iodinated RANTES or MP-1α, scintillation proximity beads and various concentrations of the compounds of the invention in 96-well plates. The amount of iodinated RANTES or MIP-1α bound to the receptor was determined by scintillation counting. Competition curves were obtained for compounds and the concentration of compound which displaced 50% of bound iodinated RANTES or MIP-1α was calculated (IC50).

| IC50 [1] [nM] | melting point [°C] | SMILES |
| --- | --- | --- |
| 39 |  | CCN(C(=O)Cc1ccc(S(C)(=O)=O)cc1)C1CCN(CC[C@H](NC(=O)C2CCN(C(C)=O)CC2)c2ccccc2)CC1 [Compound 1 of Table I, (S)-1-acetyl-piperidine-4-carboxylic acid [3-(4-{ethyl-[2-(4-methanesulfonyl-phenyl)-acetyl]-amino}-piperidin-1-yl)-1-phenyl-propyl]-amide] |
|  | 115 to 116 | CCN(C(=O)Cc1ccc(S(C)(=O)=O)cc1)C1CCN(CC[C@H](NC(=O)OC(C)(C)C)c2ccccc2)CC1 [Compound 1 of Table II, (S)-[3-(4-{ethyl-[2-(4-methanesulfonyl-phenyl)-acetyl]-amino}-piperidin-1-yl)-1-phenyl-propyl]-carbamic acid tert-butyl ester] |
| 110 |  | CCN(C(=O)Cc1ccc(S(C)(=O)=O)cc1)C1CCN(CC[C@H](NC(=O)OCCOC)c2ccccc2)CC1 [Compound 3 of Table II] |
| 28 |  | CCN(C(=O)Cc1ccc(S(C)(=O)=O)cc1)C1CCN(CC[C@H](NC(=O)C2CCN(S(C)(=O)=O)CC2)c2ccccc2)CC1 [Compound 5 of Table I] |
